Here are results for 31 molecules from patent US20090239840A1, “AMINO SUBSTITUTED DIARYL[a,d]CYCLOHEPTENE ANALOGS AS [sequence] AGONISTS AND METHODS OF TREATMENT OF NEUROPSYCHIATRIC DISORDERS” (ACADIA PHARMACEUTICALS, INC., priority 2003, published 2009).

In one assay the target is T1, muscarinic M1 receptor (Homo sapiens, UniProt P11229).
T1 construct: expressed in transfected cells
T1 sequence (P11229 1-460): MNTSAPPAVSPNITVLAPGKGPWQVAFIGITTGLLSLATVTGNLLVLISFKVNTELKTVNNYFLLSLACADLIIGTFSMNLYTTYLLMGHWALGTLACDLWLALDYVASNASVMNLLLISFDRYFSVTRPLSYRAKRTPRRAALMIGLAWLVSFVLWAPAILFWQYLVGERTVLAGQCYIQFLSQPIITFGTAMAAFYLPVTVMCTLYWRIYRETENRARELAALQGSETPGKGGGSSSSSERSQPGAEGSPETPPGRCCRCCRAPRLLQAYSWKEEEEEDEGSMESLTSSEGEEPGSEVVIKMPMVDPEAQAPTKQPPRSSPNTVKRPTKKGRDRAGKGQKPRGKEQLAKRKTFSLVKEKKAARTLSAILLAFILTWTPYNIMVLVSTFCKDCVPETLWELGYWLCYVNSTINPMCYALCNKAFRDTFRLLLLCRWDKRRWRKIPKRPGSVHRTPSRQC
Put plainly: R-SAT functional screen, M1. Format: cell-based. The conditions noted are these: R-SAT; for Emax: read-out: M1 eff (efficacy); for EC50: read-out: M1 pEC50 (converted). As for the experimental part: (§1) Several compounds disclosed herein were evaluated for activity at muscarinic receptors using Receptor Selection and Amplification Technology (R-SAT) as described in U.S. Pat. No. 5,707,798, the disclosure of which is incorporated herein by reference in its entirety. The efficacy (eff) and potency (expressed as pEC50) of these compounds are presented in Table 1 at M1, M2, and M3 receptors.

The target of a further assay is T2, muscarinic M2 receptor (Homo sapiens, UniProt P08172).
T2 construct: expressed in transfected cells
T2 sequence (P08172 1-466): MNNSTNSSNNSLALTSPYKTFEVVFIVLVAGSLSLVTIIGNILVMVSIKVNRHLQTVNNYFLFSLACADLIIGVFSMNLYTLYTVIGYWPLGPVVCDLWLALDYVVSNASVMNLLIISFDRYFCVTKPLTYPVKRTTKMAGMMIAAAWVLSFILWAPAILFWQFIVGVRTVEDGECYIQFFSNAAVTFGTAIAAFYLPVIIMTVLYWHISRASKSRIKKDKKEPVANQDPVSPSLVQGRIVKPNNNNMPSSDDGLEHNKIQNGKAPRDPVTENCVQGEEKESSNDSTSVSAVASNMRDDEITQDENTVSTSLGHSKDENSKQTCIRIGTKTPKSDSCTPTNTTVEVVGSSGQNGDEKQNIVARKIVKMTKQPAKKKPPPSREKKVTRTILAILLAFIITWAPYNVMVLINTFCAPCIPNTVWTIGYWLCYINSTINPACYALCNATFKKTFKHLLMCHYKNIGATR
The experiment in a line: R-SAT functional screen, M2. It is filed as cell-based. Conditions: R-SAT; for Emax: read-out: M2 eff (efficacy); for EC50: read-out: M2 pEC50 (converted). As for the experimental part: as §1

As to `O=S(=O)(Oc1ccc2c(c1)C(N1CCNCC1)=Nc1ccccc1N2)C(F)(F)F` [2-(Trifluoromethanesulfonyloxy)-11-(piperazin-1-yl)-5H-dibenzo[b,e][1,4]diazepine], the values for the Emax at muscarinic M1 receptor and on muscarinic M2 receptor were -8% and 9%, respectively.
The corresponding values for `O=S(=O)(Oc1ccc2c(c1)C(N1CCNCC1)=Nc1ccccc1O2)C(F)(F)F` [2-(Trifluoromethanesulfonyloxy)-11-(piperazin-1-yl)-5H-dibenzo[b,e][1,4]oxazepine] are -11% and 4%.
On the same counts, the results for `Clc1ccc2c(c1)N=C(N1CCNCC1)c1cc(Br)ccc1N2` [2-Bromo-8-chloro-11-(piperazin-1-yl)-5H-dibenzo[b,e][1,4]diazepine] are 6% and 19%.
`Clc1ccc2c(c1)C=C(N1CCNCC1)c1ccccc1N2` [2-Chloro-10-piperazin-1-yl-5H-dibenzo[b,f]azepin]: the Emax was 2% at muscarinic M1 receptor and 3% at muscarinic M2 receptor.
On the same counts, the results for `Clc1ccc2c(c1)C(N1CCNCC1)=Nc1ccccc1N2` [2-Chloro-11-(piperazin-1-yl)-5H-dibenzo[b,e][1,4]diazepine] are -5% and 8%.
On to `FC(F)(F)c1ccc2c(c1)N=C(N1CCNCC1)c1cc(Cl)ccc1N2` [2-Chloro-11-(piperazin-1-yl)-8-trifluoromethyl-5H-dibenzo[b,e][1,4]diazepine], for which the results for the Emax on muscarinic M1 receptor and at muscarinic M2 receptor were 10% and 19%, respectively.
The corresponding values for `Clc1ccc2c(c1)N=C(N1CCNCC1)c1cc(I)ccc1N2` [2-Iodo-8-chloro-11-(piperazin-1-yl)-5H-dibenzo[b,e][1,4]diazepine] are 3% and 10%.
On the same counts, the results for `Cc1ccc2c(c1)C(N1CCNCC1)=Nc1ccccc1N2` [2-Methyl-11-(piperazin-1-yl)-5H-dibenzo[b,e][1,4]diazepine] are 1% and 9%.
On the same counts, the results for `Cc1ccc2c(c1)C(N1CCNCC1)=Nc1cc(C(F)(F)F)ccc1N2` [2-Methyl-11-(piperazin-1-yl)-8-trifluoromethyl-5H-dibenzo[b,e][1,4]diazepine] are 15% and 14%.
Regarding `Clc1ccc2c(c1)Nc1cc(Cl)ccc1C(N1CCNCC1)=N2` [3,7-Dichloro-11-(piperazin-1-yl)-5H-dibenzo[b,e][1,4]diazepine], the results for the Emax on muscarinic M1 receptor and on muscarinic M2 receptor were 15% and 19%, respectively.
Take `Clc1ccc2c(c1)N=C(N1CCNCC1)c1ccc(Cl)cc1N2` [3,8-Dichloro-11-(piperazin-1-yl)-5H-dibenzo[b,e][1,4]diazepine]: the Emax at muscarinic M1 receptor worked out at 34%; on muscarinic M2 receptor, 58%. In addition, the EC50 at muscarinic M1 receptor was 126 nM; on muscarinic M2 receptor, 1580 nM.
`Clc1ccc2c(c1)Nc1ccccc1N=C2N1CCNCC1` [3-Chloro-11-(piperazin-1-yl)-5H-dibenzo[b,e][1,4]diazepine]: the Emax on muscarinic M1 receptor stood at 16%. For the same molecule, on muscarinic M2 receptor, the Emax turned out to be 27% and the EC50 is 2000 nM.
Take `Fc1ccc2c(c1)N=C(N1CCNCC1)c1ccccc1C2` [3-Fluoro-6-piperazin-1-yl-11H-dibenzo[b,e]azepine]: the Emax on muscarinic M1 receptor is 23%. Besides, at muscarinic M2 receptor, the Emax worked out at 55% and the EC50 is 794 nM.
On the same counts, the results for `C=CCN1c2ccc(Cl)cc2N=C(N2CCNCC2)c2ccccc21` [5-Allyl-8-chloro-11-(piperazin-1-yl)-5H-dibenzo[b,e][1,4]diazepine] are 12%, 46% and 1580 nM.
Regarding `Clc1ccc2c(c1)N=C(C1CCNCC1)c1ccccc1N2Cc1ccccc1` [5-Benzyl-8-chloro-11-(piperidin-4-yl)-5H-dibenzo[b,e][1,4]diazepine], the Emax at muscarinic M1 receptor was 12%; at muscarinic M2 receptor, 5%.
For the molecule `Clc1cc2c(cc1Cl)Nc1ccccc1C(N1CCNCC1)=N2` [7,8-Dichloro-11-(piperazin-1-yl)-5H-dibenzo[b,e][1,4]diazepine], the Emax amounted to 32% on muscarinic M1 receptor and 8% at muscarinic M2 receptor. For the same molecule, the EC50 on muscarinic M1 receptor is 79.4 nM.
Turning to `CC1CC(N2CCNCC2)=Nc2cc(Br)ccc2N1` (centres unmarked) [7-Bromo-2-methyl-(piperazin-1-yl)-2,3-dihydro-1H-benzo[b][1,4]diazepine], the figures for the Emax at muscarinic M1 receptor and on muscarinic M2 receptor were 16% and 23%, respectively.
Consider `Brc1ccc2c(c1)N=C(N1CCNCC1)CC(c1ccccc1)N2` (centres unmarked) [7-Bromo-2-phenyl-4-(piperazine-1-yl)-2,3-dihydro-1H-benzo[b][1,4]diazepine], for which the results for the Emax at muscarinic M1 receptor and on muscarinic M2 receptor were 3% and 19%, respectively.
Regarding `Brc1ccc2c(c1)N=C(N1CCNCC1)CCN2` [7-Bromo-4-(piperazin-1-yl)-2,3-dihydro-1H-benzo[b][1,4]diazepine], at muscarinic M1 receptor, the Emax was determined as 56% and the EC50 is 2510 nM. Besides, the Emax at muscarinic M2 receptor is 3%.
On to `Brc1ccc2c(c1)N=C(N1CCNCC1)C1CCCC1N2` (centres unmarked) [7-Bromo-10-(piperazin-1-yl)-1,2,3,3a,4,10a-hexahydro-benzo[b]cyclopenta[e][1,4]diazepine], for which, on muscarinic M1 receptor, the Emax amounted to 50% and the EC50 is 1580 nM. Moreover, the Emax on muscarinic M2 receptor was 12%.
Turning to `Cc1ccc2c(c1)C(N1CCNCC1)=Nc1ccc(Cl)cc1N2` [7-Chloro-2-methyl-11-(piperazin-1-yl)-5H-dibenzo[b,e][1,4]diazepine], the figures for the Emax at muscarinic M1 receptor and at muscarinic M2 receptor were -3% and 5%, respectively.
As to `Clc1ccc2c(c1)Nc1ccccc1C(N1CCNCC1)=N2` [7-Chloro-11-(piperazin-1-yl)-5H-dibenzo[b,e][1,4]diazepine], the results for the Emax at muscarinic M1 receptor and at muscarinic M2 receptor were 48% and 53%, respectively. Moreover, the EC50 at muscarinic M1 receptor is 251 nM.
In the case of `O=S(=O)(Oc1ccc2c(c1)N=C(N1CCNCC1)c1ccccc1N2)C(F)(F)F` [8-(Trifluoromethanesulfonyloxy)-11-(piperazin-1-yl)-5H-dibenzo[b,e][1,4]diazepine], the values for the Emax at muscarinic M1 receptor and on muscarinic M2 receptor were 19% and 62%, respectively. The EC50 at muscarinic M2 receptor is 2510 nM.
The corresponding values for `Clc1ccc2c(c1)C(N1CCNCC1)=Nc1cc(Br)ccc1N2` [8-Bromo-2-chloro-11-(piperazin-1-yl)-5H-dibenzo[b,e][1,4]diazepine] are 10%, 29% and 3160 nM.
Take `Cc1ccc2c(c1)C(N1CCNCC1)=Nc1cc(Br)ccc1N2` [8-Bromo-2-methyl-11-(piperazin-1-yl)-5H-dibenzo[b,e][1,4]diazepine]: the results for the Emax at muscarinic M1 receptor and on muscarinic M2 receptor were 8% and 44%, respectively.
For `Clc1ccc2c(c1)Nc1ccc(Br)cc1N=C2N1CCNCC1` [8-Bromo-3-chloro-11-(piperazin-1-yl)-5H-dibenzo[b,e][1,4]diazepine], on muscarinic M1 receptor, the Emax came to 31% and the EC50 is 251 nM. Moreover, on muscarinic M2 receptor, the Emax came out at 34% and the EC50 was 316 nM.
Take `CN1c2ccc(Br)cc2N=C(N2CCNCC2)c2ccccc21` [8-Bromo-5-methyl-11-(piperazin-1-yl)-5H-dibenzo[b,e][1,4]diazepine]: at muscarinic M1 receptor, the Emax stood at 92% and the EC50 is 398 nM. Besides, at muscarinic M2 receptor, the Emax came out at 75% and the EC50 is 2510 nM.
Turning to `O=S(=O)(Oc1ccc2c(c1)C(N1CCNCC1)=Nc1cc(Cl)ccc1N2)C(F)(F)F` [8-Chloro-2-(trifluoromethanesulfonyloxy)-11-(piperazin-1-yl)-5H-dibenzo[b,e][1,4]diazepine], the Emax on muscarinic M1 receptor is -2%; at muscarinic M2 receptor, 16%.
Turning to `Fc1ccc2c(c1)C(N1CCNCC1)=Nc1cc(Cl)ccc1N2` [8-Chloro-2-fluoro-11-(piperazin-1-yl)-5H-dibenzo[b,e][1,4]diazepine], on muscarinic M1 receptor, the Emax was determined as 32% and the EC50 is 158 nM. On muscarinic M2 receptor, the Emax was determined as 121% and the EC50 was 3160 nM.
Regarding `COc1ccc2c(c1)C(N1CCNCC1)=Nc1cc(Cl)ccc1N2` [8-Chloro-2-methoxy-11-(piperazin-1-yl)-5H-dibenzo[b,e][1,4]diazepine], the Emax on muscarinic M1 receptor and at muscarinic M2 receptor was 7% in each case.
For `Cc1ccc2c(c1)C(N1CCNCC1)=Nc1cc(Cl)ccc1N2` [8-Chloro-2-methyl-11-(piperazin-1-yl)-5H-dibenzo[b,e][1,4]diazepine], on muscarinic M1 receptor, the Emax stood at 14%. Further, at muscarinic M2 receptor, the Emax was 28% and the EC50 was 1260 nM.
